What all share (format): cell-based
One test concerns some of these organisms. In words: MIC against various organisms (unspecified subset). The conditions noted are these: against some of these organisms (those of the table). On the procedure: (§1) The MIC (μg/ml) of compounds 1 and 2 against various organisms was determined.
The next test has as its system S. aureus Carter 37. The test is described as follows: MIC against S. aureus Carter 37. The conditions noted are these: Staphylococcus aureus, CARTER37. As to the method:
as §1

The test system of the next test is M. catarrhalis Ravasio. In words: MIC against M. catarrhalis Ravasio. The conditions noted are these: Moraxella catarrhalis. As to the method: as §1
The test system of another test is S. pneumoniae R6. The test is described as follows: MIC against S. pneumoniae R6. The conditions noted are these: Streptococcus pneumoniae. As to the method: as §1
The next test has as its system S. aureus WCUH29. In words: MIC against S. aureus WCUH29. The conditions noted are these: Staphylococcus aureus. As to the method: as §1
The next test relates to S. aureus Oxford. In words: MIC against S. aureus Oxford. The conditions noted are these: Staphylococcus aureus. As to the method: as §1
In the next test the test system is E. faecalis I. In words: MIC against E. faecalis I. The conditions noted are these: Enterococcus faecalis. On the procedure: as §1

Structures are written as SMILES. Converted amounts (≈) assume the structure as drawn.

What is called MIC is the least concentration at which growth counts as inhibited. High values mean weaker potency, low ones greater potency. With `C=C[C@H]1CN(CCCCCCC)CC[C@H]1CC(O)Cc1ccnc2ccc(OC)nc12` (mixture of isomers) [Example 5, [3R,4S]-1-Heptyl-3-ethenyl-4-[2-(R,S)-hydroxy-3-(6-methoxy-1,5-naphthyridin-4-yl)propyl]piperidine], in the test on some of these organisms, the MIC was not above 1 µg/mL.
As for `C=C[C@H]1CN(CCCCCCC)CC[C@H]1CCN(C)c1ncnc2ccc(OC)cc12` [Example 1, [3R, 4S]-1-Heptyl-4-[N-methyl-N-(6-methoxy-quinazolin-4-yl)-2-aminoethyl]-3-ethenylpiperidine], the MIC in the test with S. aureus Carter 37 is 0.5 µg/mL (≈ 1.18 µM); in the test with M. catarrhalis Ravasio it was 0.5 µg/mL (≈ 1.18 µM); in the test on S. pneumoniae R6, 0.5 µg/mL (≈ 1.18 µM); against S. aureus WCUH29, 0.5 µg/mL (≈ 1.18 µM); against S. aureus Oxford, 0.5 µg/mL (≈ 1.18 µM); in the test with E. faecalis I, 4 µg/mL (≈ 9.42 µM).
For the compound `C=C[C@H]1CN(CCCCCCC)CC[C@H]1CCOc1ncnc2ccc(OC)cc12` [Example 2, [3R, 4S]-1-Heptyl-4-[2-(6-methoxyquinazolin4-oxy)ethyl]-3-ethenylpiperidine], the MIC was found to be 4 µg/mL (≈ 9.72 µM) against S. aureus Carter 37; 4 µg/mL (≈ 9.72 µM) against M. catarrhalis Ravasio; 8 µg/mL (≈ 19.4 µM) with S. pneumoniae R6; 4 µg/mL (≈ 9.72 µM) in the test on S. aureus WCUH29; 4 µg/mL (≈ 9.72 µM) against S. aureus Oxford; 8 µg/mL (≈ 19.4 µM) in the test on E. faecalis I.
As to `CCCCCCCN1CCC(C(=O)Nc2ccnc3ccc(OC)nc23)CC1` [Example 3, 1-Heptyl-4-(6-methoxy-1,5-naphthyridin-4-yl)aminocarbonyl Piperidine], the MIC in the test on some of these organisms was not above 1 µg/mL.
In turn, `CCCCCCCN1CC[C@@H](CC(=O)Nc2ccnc3ccc(OC)nc23)[C@@H](CC(N)=O)C1.O=C(O)C(=O)O` [Example 6, [3R,4S]-1-Heptyl-4-N-(6-methoxy-1,5-naphthyridin-4-yl)-3,4-piperidinediacetamide Oxalate] yielded an MIC against some of these organisms not above 1 µg/mL.
